Experiment [1] deals with Wnt-dependent HCT116 cell line. The experiment is described as follows: Viability assay using Wnt-dependent HCT116 cell line (Cell Titer Glo). It is filed as cell-based. Put shortly: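 HCT116 cells at 2,500 cells/well were treated on day 2 with DMSO-diluted compounds further diluted 500-fold in medium, giving a final 0.1% DMSO. Viability was read on day 5 by Cell Titer Glo luminescence.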

For experiment [2], the system named is Wnt reporter (TCF/LEF1 promoter). The experiment is described as follows: HEK STF293 Wnt reporter (TOPFlash) luciferase assay, Steady Glo normalised to Cell Titer. It is filed as cell-based, human. Put shortly:
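HEK STF293 cells carrying a TCF/LEF1-driven firefly luciferase were stimulated with Wnt3a-conditioned media (1:1) and compound at final 100 μM to 1 nM. Next day, lysates were read by Steady Glo luminescence. EC50 was derived from Steady Glo divided by Cell Titer to normalize for cell number.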

[3] abbreviates: Homo sapiens, HCT-116, Examples for Formulae (IV), (V), (VI), and (VII), HCT116 cells, read-out: Viability IC50 category.
[4] abbreviates: Homo sapiens, STF/293, Examples for Formulae (IV), (V), (VI), and (VII), HEK STF293 cells, Wnt3a-conditioned media, read-out: TOPFlash IC50 category.
Where [5] appears, read: Homo sapiens, HCT-116, Examples for Formulae (I), (II), and (III), HCT116 cells, read-out: Viability IC50 category.
Setting [6] is: Homo sapiens, STF/293, Examples for Formulae (I), (II), and (III), HEK STF293 cells, Wnt3a-conditioned media, read-out: TOPFlash IC50 category.
[7] abbreviates: Examples for Formulae (IV), (V), (VI), and (VII), HCT116 cells, read-out: Viability IC50 category.
[8] abbreviates: Examples for Formulae (IV), (V), (VI), and (VII), HEK STF293 cells, Wnt3a-conditioned media, read-out: TOPFlash IC50 category.
The mark [9] stands for this setting: Homo sapiens, HCT-116, read-out: Viability IC50 category.
Where [10] appears, read: Homo sapiens, STF/293, read-out: TOPFlash IC50 category.

Here are results for 30 compounds from patent US20250257061A1, “COMPOSITIONS AND METHODS FOR TREATING CANCER AND REDUCING WNT MEDIATED EFFECTS” (StemSynergy Therapeutics, Inc., priority 2024, published 2025).

The structures appear in SMILES notation. Where two headings read alike, the source gives them in different places. Bounds are passed on as bounds.

As for `Cc1onc(-c2ccccc2F)c1C(=O)Nc1nc(-c2ccccn2)cs1` [Example 7], the IC50 in experiment [1] (setting [3]) and in experiment [2] (setting [4]) was 0.2 to 0.5 µM each time.
As for `Cc1nn(-c2ccccc2Cl)c(C(F)F)c1C(=O)Nc1nc(-c2ccccn2)cs1` [Example 12], the values for the IC50 in experiment [1] (setting [5]) and in experiment [2] (setting [6]) were 0.5 to 1 µM and 0.2 to 0.5 µM, respectively.
For `CN(c1nc(-c2ccc(Cl)cc2)c(C(=O)Nc2nc(-c3ccccn3)cs2)o1)S(=O)(=O)c1ccc(C(F)(F)F)cc1` [Example 73], the IC50 in experiment [1] (setting [7]) and in experiment [2] (setting [8]) was under 0.2 µM in each case.
For `Cc1nc(N(C)S(=O)(=O)c2ccc(C(F)(F)F)cc2)oc1C(=O)Nc1nc(-c2ccccn2)cs1` [Example 50], the 50% inhibitory concentration (IC50) in experiment [1] (setting [7]) and in experiment [2] (setting [8]) was 0.2 to 0.5 µM in each case.
As to `O=C(Nc1nc(-c2ccccn2)cs1)c1cn(-c2ccccc2)nc1-c1ccccc1` [Example 14], the values for the IC50 in experiment [1] (setting [5]) and in experiment [2] (setting [6]) were 0.2 to 0.5 µM and under 0.2 µM, respectively.
On to `CN(c1nc(-c2ccc(S(C)(=O)=O)cc2)c(C(=O)Nc2nc(-c3ccccn3)cs2)o1)S(=O)(=O)c1ccc(F)cc1` [Example 74], for which the IC50 in experiment [1] (setting [7]) and in experiment [2] (setting [8]) was under 0.2 µM in each case.
Regarding `CN(C)C(=O)c1ccc(-c2ncoc2C(=O)Nc2nc(-c3ccccn3)cs2)cc1` [Example 41], the IC50 in experiment [1] (setting [3]) and in experiment [2] (setting [4]) was 0.5 to 1 µM each time.
With `Cc1nn(-c2ccc(F)cc2F)c(C)c1C(=O)Nc1nc(-c2ccccn2)cs1` [Example 8], the IC50 in experiment [1] (setting [5]) and in experiment [2] (setting [6]) was 0.5 to 1 µM in each case.
As for `CN(C(=O)c1ccc(Cl)cc1)c1ncc(C(=O)Nc2nc(-c3ccccn3)cs2)o1` [Example 34], the IC50 in experiment [1] (setting [7]) and in experiment [2] (setting [8]) was 1 to 10 µM throughout.
As to `Cc1nc(-c2ccc(-c3nnc[nH]3)cc2)c(C(=O)Nc2nc(-c3ccccn3)cs2)o1` [Example 67], the IC50 in experiment [1] (setting [3]) and in experiment [2] (setting [4]) was 0.2 to 0.5 µM in each case.
Consider `Cc1nn(Cc2ccc(C(F)(F)F)cc2)c(C)c1C(=O)Nc1nc(-c2ccccn2)cs1` [Example 16], for which the IC50 in experiment [1] (setting [5]) and in experiment [2] (setting [6]) was 0.5 to 1 µM in each case.
With `O=C(Nc1nc(-c2ccccn2)cs1)c1cnnn1-c1cccc(F)c1` [Example 18], the IC50 in experiment [1] (setting [5]) and in experiment [2] (setting [6]) was 0.2 to 0.5 µM throughout.
With `C#Cc1ccc(-c2nc(C)oc2C(=O)Nc2nc(-c3ccccn3)cs2)cc1` [Example 68], the IC50 in experiment [1] (setting [7]) and in experiment [2] (setting [8]) was under 0.2 µM each time.
Turning to `Cc1nc(-c2ccc(F)cc2)c(C(=O)Nc2nc(-c3ccccn3)cs2)o1` [Example 8], the IC50 in experiment [1] (setting [3]) and in experiment [2] (setting [4]) was under 0.2 µM in each case.
Regarding `Cc1onc(-c2ccc(C(F)(F)F)c(Cl)c2)c1C(=O)Nc1nc(-c2ccccn2)cs1` [Example 63], the IC50 in experiment [1] (setting [3]) and in experiment [2] (setting [4]) was 0.2 to 0.5 µM each time.
`CN(c1nc(C(F)(F)F)c(C(=O)Nc2nc(-c3ccccn3)cs2)o1)S(=O)(=O)c1ccccc1Cl` [Example 56]: the IC50 in experiment [1] (setting [7]) and in experiment [2] (setting [8]) was 0.5 to 1 µM in each case.
`O=C(Nc1nc(-c2ccccn2)cs1)c1oc(C2CC2)nc1-c1ccc(F)cc1` [Example 31]: the IC50 in experiment [1] (setting [3]) is 0.2 to 0.5 µM; in experiment [2] (setting [4]), under 0.2 µM.
On to `CN(c1ncc(C(=O)O)o1)S(=O)(=O)c1ccc(C(F)(F)F)cc1` [Example 43], for which the IC50 in experiment [1] (setting [7]) and in experiment [2] (setting [8]) was under 0.2 µM each time.
As to `CN(C(=O)c1ccc(C(F)(F)F)cc1)c1ncc(C(=O)Nc2nc(-c3ccccn3)cs2)o1` [Example 35], the IC50 was 1 to 10 µM in experiment [1] (setting [7]) and 0.5 to 1 µM in experiment [2] (setting [8]).
As for `Cc1cc(C(=O)Nc2nc(-c3ncccc3C)co2)n(-c2ccc(S(C)(=O)=O)cc2)n1` [Example 19], the IC50 is 0.2 to 0.5 µM in experiment [1] (Homo sapiens, HCT-116, Examples for Formulae (VIII), (IX), and (X), HCT116 cells, read-out: Viability IC50 category); under 0.2 µM in experiment [2] (Homo sapiens, STF/293, Examples for Formulae (VIII), (IX), and (X), HEK STF293 cells, Wnt3a-conditioned media, read-out: TOPFlash IC50 category).
Take `COc1ccc(S(=O)(=O)N(C)c2ncc(C(=O)Nc3nc(-c4ccccn4)cs3)o2)cc1` [Example 39]: the IC50 in experiment [1] (setting [3]) and in experiment [2] (setting [4]) was 0.5 to 1 µM in each case.
On to `Cc1onc(-c2ccc(F)cc2)c1C(=O)Nc1nc(-c2ccccn2)cs1` [Example 4], for which the IC50 in experiment [1] (setting [3]) is 0.2 to 0.5 µM; in experiment [2] (setting [4]), under 0.2 µM.
For the compound `Cc1nc(-c2ccc(C#N)cc2)c(C(=O)Nc2nc(-c3ccccn3)cs2)o1` [Example 30], the half-inhibitory concentration (IC50) in experiment [1] (setting [7]) was 0.2 to 0.5 µM; in experiment [2] (setting [8]), under 0.2 µM.
In the case of `CCS(=O)(=O)N(C)c1nc(-c2ccc(F)cc2)c(C(=O)Nc2nc(-c3ccccn3)cs2)o1` [Example 57], the IC50 in experiment [1] (setting [3]) and in experiment [2] (setting [4]) was under 0.2 µM in each case.
For the compound `COc1ccc(S(=O)(=O)N(C)c2ncc(C(=O)O)o2)cc1` [Example 40], the IC50 in experiment [1] (setting [7]) and in experiment [2] (setting [8]) was 0.2 to 0.5 µM each time.
Regarding `Cc1onc(-c2ccc(C(F)(F)F)c(F)c2)c1C(=O)Nc1nc(-c2ccccn2)cs1` [Example 62], the IC50 in experiment [1] (setting [7]) is under 0.2 µM; in experiment [2] (setting [8]) it was 0.2 to 0.5 µM.
In the case of `O=C(Nc1nc(-c2ccccn2)cs1)c1oc(CO)nc1-c1ccc(F)cc1` [Example 70, 4-(4-fluorophenyl)-2-(hydroxymethyl)-N-(4-(pyridin-2-yl)thiazol-2-yl)oxazole-5-carboxamide], the IC50 in experiment [1] (setting [9]) lay in the range of 0.2 to 0.5 µM; in experiment [2] (setting [10]) it was 0.5 to 1 µM.
For `Cc1onc(-c2ccccc2)c1C(=O)Nc1nc(-c2ccccn2)cs1` [Example 27], in that order: 0.2 to 0.5 µM and 0.2 to 0.5 µM.
Regarding `Cc1ccc(Cn2nc(C)c(C(=O)Nc3nc(-c4ccccn4)cs3)c2C)cc1` [Example 10], the concentration for half-maximal inhibition (IC50) in experiment [1] (setting [5]) was 1 to 10 µM; in experiment [2] (setting [6]) it was 0.5 to 1 µM.
Take `Cc1onc(-c2cccc(F)c2)c1C(=O)Nc1nc(-c2ccccn2)cs1` [Example 5]: the IC50 in experiment [1] (setting [3]) and in experiment [2] (setting [4]) was 0.2 to 0.5 µM in each case.

What is called IC50 is the concentration that gives 50% inhibition.
